Article PMC4629130, “Human Odorant Reception in the Common Bed Bug, Cimex lectularius” (Scientific Reports, 2015)

What was measured:
ClOr2/Orco = biological target: T1, ClOr2/Orco (Cimex lectularius, UniProt A0A8I6SBL2); assay: two-electrode voltage clamp, Xenopus oocytes; assay type: cell-based
T1 construct: entire coding regions of ClOr2 and ClOrco in pT7Ts, cRNAs co-injected into Xenopus oocytes; heteromeric receptor channel; clusters with Rhodnius RpOr105; with Odorant receptor coreceptor

ClOr1/Orco = biological target: T2, ClOr1/Orco (Cimex lectularius, UniProt A0A8I6SE58); assay: two-electrode voltage clamp, Xenopus oocytes; assay type: cell-based
T2 construct: entire coding regions of ClOr1 and ClOrco in pT7Ts, cRNAs co-injected into Xenopus oocytes; heteromeric receptor channel; with Odorant receptor coreceptor
T2 sequence (A0A8I6SE58 1-379): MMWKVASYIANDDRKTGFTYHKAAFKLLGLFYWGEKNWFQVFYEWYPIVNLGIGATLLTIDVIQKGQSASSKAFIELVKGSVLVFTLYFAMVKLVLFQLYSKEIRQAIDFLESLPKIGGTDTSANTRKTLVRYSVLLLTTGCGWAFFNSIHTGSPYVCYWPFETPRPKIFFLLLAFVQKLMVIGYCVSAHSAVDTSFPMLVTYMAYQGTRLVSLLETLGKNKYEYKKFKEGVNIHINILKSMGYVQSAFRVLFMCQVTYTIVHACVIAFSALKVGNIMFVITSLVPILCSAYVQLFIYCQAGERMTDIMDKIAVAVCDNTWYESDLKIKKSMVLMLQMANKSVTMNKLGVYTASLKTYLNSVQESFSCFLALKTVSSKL
T2 sequence (A0A0A0U7J0 1-451 partner): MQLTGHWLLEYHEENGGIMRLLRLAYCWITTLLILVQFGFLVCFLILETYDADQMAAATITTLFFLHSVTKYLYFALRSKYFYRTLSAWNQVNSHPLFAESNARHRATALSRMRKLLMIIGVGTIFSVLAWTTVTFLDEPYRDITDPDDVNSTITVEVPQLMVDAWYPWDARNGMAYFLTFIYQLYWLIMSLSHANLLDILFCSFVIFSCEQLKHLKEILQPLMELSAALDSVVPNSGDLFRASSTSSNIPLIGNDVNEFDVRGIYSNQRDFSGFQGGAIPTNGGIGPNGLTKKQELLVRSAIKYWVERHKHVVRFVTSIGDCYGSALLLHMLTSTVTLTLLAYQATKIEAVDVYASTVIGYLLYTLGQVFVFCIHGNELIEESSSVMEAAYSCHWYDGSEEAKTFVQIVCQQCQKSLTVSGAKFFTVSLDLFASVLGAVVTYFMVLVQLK

T1 sequence (A0A8I6SBL2 1-382): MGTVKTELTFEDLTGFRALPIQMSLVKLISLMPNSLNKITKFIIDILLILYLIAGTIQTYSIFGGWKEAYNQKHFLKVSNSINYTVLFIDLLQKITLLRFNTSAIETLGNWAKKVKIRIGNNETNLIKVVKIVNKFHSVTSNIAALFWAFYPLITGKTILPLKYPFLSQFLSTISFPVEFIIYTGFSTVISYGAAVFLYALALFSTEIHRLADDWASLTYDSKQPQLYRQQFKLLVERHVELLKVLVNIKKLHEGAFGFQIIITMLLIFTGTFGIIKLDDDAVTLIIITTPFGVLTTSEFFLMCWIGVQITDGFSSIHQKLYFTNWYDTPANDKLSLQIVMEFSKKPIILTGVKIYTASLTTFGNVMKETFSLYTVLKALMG
T1 sequence (A0A0A0U7J0 1-451 partner): as the sequence (A0A0A0U7J0 1-451 partner) above

| SMILES | EC50 (ClOr2/Orco) [µM] | EC50 (ClOr1/Orco) [µM] |
| --- | --- | --- |
| CCCCCCCCCC=O [decanal] | 6.42 |  |
| CCCCCCCC=O [octanal] |  | 3.4 |
| CCCCCCCCC=O [nonanal] |  | 0.519 |
